The assay deals with C. tropicalis ATCC 750. The experiment in a line: Checkerboard MIC assay, FICI. The format is cell-based, Candida tropicalis. Particulars: combination with Compound 1; C. tropicalis ATCC 750. From the text: The following assay was used to determine the minimum inhibitory concentration (MIC) and fractional inhibitory concentration index (FICI) for combinations of an antifungal agent and a glycopeptide antibacterial agent. This assay and methods for calculating FICI are well known in the art. See, for example, Eliopoulos, E. G. and R. Moellering, Jr. “Antimicrobial Combinations” in Antibiotics in Laboratory Medicine, edited by V. Lorian, 4th Ed., Williams & Wilkins, Baltimore, MD, pp. 330-396 (1996); […] et al., Antimicrobial Agents and Chemotherapy 47(4):1416-1418 (2003); or […] et al., Antimicrobial Agents and Chemotherapy 46(10):3323-3326 (2002). Procedures, protocols, supplies and equipment used in this assay follow the recommendations approved and published by the National Committee for Clinical Laboratory Standards (NCCLS), Wayne, Pa. as described in NCCLS 2003, “Reference Method for Broth Dilution Antimicrobial Susceptibility Tests for Bacteria that Grow Aerobically; Approved Standard” (NCCLS document M7-A6); NCCLS 2002, “Reference Method for Broth Dilution Antifungal Susceptibility Tests of Filamentous Fungi that Grow Aerobically; Approved Standard” (NCCLS document M38-A); and NCCLS 2002 “Reference Method for Broth Dilution Antifungal Susceptibility Tests of Yeast; Approved Standards-2nd Edition” (NCCLS document M27-A2). Using a checkerboard method, a 2-fold dilution 100× final concentration master plate was prepared using a 96-well U-shape microtiter plate and an appropriate solvent. In the “checkerboard” method, a microtiter plate is divided into “columns” in which each well in the column contains the same amount of an antifungal agent (Compound A) being diluted along the x-axis, and “rows” in which each well in the row contains the same amount of a glycopeptide antibacterial agent (Compound B) being diluted on the y-axis. Also included is a row (or column) for Compound A or B alone. The dilutions used in the checkerboard are exponential (by powers of two). The result is that each well in the microtiter plate contains a unique concentration of the two compounds being tested. […] After mixing, 100 μL of 2× drug combinations were distributed into 96-well microtiter plates. […] Compound A was not added to Column 12, so Column 12 contained only Compound B. Compound B was diluted from row A starting at 6,400 μg/mL down to row G (100 μg/mL). Wells in Row A contained a final concentration of 64 μg/mL of Compound B; Row B contained a final concentration of 32 μg/mL of Compound B; Row C contained a final concentration of 16 μg/mL of Compound B; etc. Compound B was not added to Row H, so Row H only contained Compound A. […] The MIC of the glycopeptide antibacterial agent determined from this experiment was used in FIC calculations. […] RPMI-1640 without sodium bicarbonate media (GIBCO-BRL, Carlsbad, Calif.), an enriched media formulated for mammalian cells, was used according to the NCCLS guidelines for yeast and filamentous fungi susceptibility testing. The medium was buffered with 0.165 M 3-[N-Morpholino]propanesulfonic acid (MOPS) supplemented with 20 g/L glucose and pH adjusted to 7.0 with hydrogen chloride. Sabouraud Dextrose Agar ([…] plates, and Potato Dextrose Agar (PDA) plates were purchased from Hardy Diagnostic (Santa Maria, Calif.). Yeast cultures were started from -80° C. frozen stock streaked on […] incubated at 35° C. under aerobic conditions for 24 h. The […] in the refrigerator for up to 2 weeks and used regularly as a starting culture. About 24 to 48 h before each assay was run, yeasts were streaked on SDA plates for isolated colonies. To prepare the inoculum, from one to four colonies were resuspended in 5 mL of saline, and vortexed for 15 sec. […] For most yeast and mold cultures, the optical density (OD) of the suspension was adjusted to 0.11 in saline to provide 0.4×10^6 CFU/mL. However, for Fusarium moniliforme and Pseudallescheria boydii the OD of the suspension was adjusted to OD=0.17 to provide 0.4×10^6 CFU/mL. […]

Structures are written as SMILES.

As for `C[C@@H]1[C@H](O)[C@@H](C)/C=C/C=C/C=C/C=C/C=C/C=C/C=C/[C@H](O[C@@H]2O[C@H](C)[C@@H](O)[C@H](N)[C@@H]2O)C[C@@H]2O[C@](O)(C[C@@H](O)C[C@@H](O)[C@H](O)CC[C@@H](O)C[C@@H](O)CC(=O)O[C@H]1C)C[C@H](O)[C@H]2C(=O)O` [Amphotericin B], the FICI is reported as 0.27.
With `C[C@@H]1[C@H](O)[C@@H](C)/C=C/C=C/CC/C=C/C=C/C=C/C=C/C(O[C@H]2O[C@H](C)[C@@H](O)[C@H](N)[C@@H]2O)CC2O[C@](O)(CC(O)C(O)CCC(O)CC(O)CC(O)CC(=O)O[C@H]1C)CC(O)C2C(=O)O` (some centres unmarked) [Nystatin], the FICI amounted to 0.31.

These data come from patent US7521418B2, “Use of a polyene macrolide antifungal agent in combination with a glycopeptide antibacterial agent” (Theravance, Inc., priority 2003, dated 2009).
